From ChEMBL document CHEMBL1201861, “Genomics of Drug Sensitity in Cancer screening data, Wellcome Trust Sanger Institute”
pIC50: −log10 of the molar value.

Columns and labels:
Assay type in all cases: functional, cell-based
D-336MG = test: cells; settings: Homo sapiens
Description: SANGER: Inhibition of human D-336MG cell growth in a cell viability assay.

MOLT-13 = test: cells; settings: Homo sapiens;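 also: IC50 for suppression of MOLT-13 cell growth, read out with a cell viability assay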
Description: SANGER: Inhibition of human MOLT-13 cell growth in a cell viability assay.

KP-N-YN = test: cells; settings: Homo sapiens;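 also: growth inhibition of KP-N-YN cells, read out with a cell viability assay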
Description: SANGER: Inhibition of human KP-N-YN cell growth in a cell viability assay.

ARH-77 = test: cells; settings: Homo sapiens;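 also: growth inhibition of ARH-77 cells, read out by a cell viability assay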
Description: SANGER: Inhibition of human ARH-77 cell growth in a cell viability assay.

NCCIT = test: SANGER: Inhibition of human NCCIT cell growth in a cell viability assay.
KARPAS-422 = test: cells; settings: Homo sapiens
Description: SANGER: Inhibition of human KARPAS-422 cell growth in a cell viability assay.

SR = test: cells; settings: Homo sapiens
Description: SANGER: Inhibition of human SR cell growth in a cell viability assay.

SUP-T1 = test: cells; settings: Homo sapiens;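 also: growth inhibition of human SUP-T1 cells, read out as cell viability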
Description: SANGER: Inhibition of human SUP-T1 cell growth in a cell viability assay.

OPM-2 = test: cells; settings: Homo sapiens;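 also: growth of OPM-2 cells measured with a viability assay, IC50 for suppression of proliferation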
Description: SANGER: Inhibition of human OPM-2 cell growth in a cell viability assay.

WSU-NHL = test: cells; settings: Homo sapiens;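 also: growth inhibition of human WSU-NHL cells, read out with a cell viability assay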
Description: SANGER: Inhibition of human WSU-NHL cell growth in a cell viability assay.

GDM-1 = test: cells; settings: Homo sapiens;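 also: cell viability readout used to measure growth inhibition of human GDM-1 cells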
Description: SANGER: Inhibition of human GDM-1 cell growth in a cell viability assay.

NALM-6 = test: cells; settings: Homo sapiens;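 also: growth inhibition of NALM-6 cells, read out with a cell viability assay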
Description: SANGER: Inhibition of human NALM-6 cell growth in a cell viability assay.

BL-70 = test: SANGER: Inhibition of human BL-70 cell growth in a cell viability assay.

Measured: pIC50

CCn1c(-c2nonc2N)nc2cnc(Oc3cccc(NC(=O)c4ccc(OCCN5CCOCC5)cc4)c3)cc21 [GSK-269962A]
5.81: NALM-6
6.20: D-336MG
> 8.01: SR
< 5.60: all other assays above
